Reference: paper PMC11094793, “Discovery of LLC0424 as a Potent and Selective in Vivo NSD2 PROTAC Degrader” (Journal of Medicinal Chemistry, 2024)
Read-outs that look alike come from different tables or passages of the source.

Target: T1, NSD2 (Homo sapiens, UniProt O96028)
T1 sequence (O96028 1-1365): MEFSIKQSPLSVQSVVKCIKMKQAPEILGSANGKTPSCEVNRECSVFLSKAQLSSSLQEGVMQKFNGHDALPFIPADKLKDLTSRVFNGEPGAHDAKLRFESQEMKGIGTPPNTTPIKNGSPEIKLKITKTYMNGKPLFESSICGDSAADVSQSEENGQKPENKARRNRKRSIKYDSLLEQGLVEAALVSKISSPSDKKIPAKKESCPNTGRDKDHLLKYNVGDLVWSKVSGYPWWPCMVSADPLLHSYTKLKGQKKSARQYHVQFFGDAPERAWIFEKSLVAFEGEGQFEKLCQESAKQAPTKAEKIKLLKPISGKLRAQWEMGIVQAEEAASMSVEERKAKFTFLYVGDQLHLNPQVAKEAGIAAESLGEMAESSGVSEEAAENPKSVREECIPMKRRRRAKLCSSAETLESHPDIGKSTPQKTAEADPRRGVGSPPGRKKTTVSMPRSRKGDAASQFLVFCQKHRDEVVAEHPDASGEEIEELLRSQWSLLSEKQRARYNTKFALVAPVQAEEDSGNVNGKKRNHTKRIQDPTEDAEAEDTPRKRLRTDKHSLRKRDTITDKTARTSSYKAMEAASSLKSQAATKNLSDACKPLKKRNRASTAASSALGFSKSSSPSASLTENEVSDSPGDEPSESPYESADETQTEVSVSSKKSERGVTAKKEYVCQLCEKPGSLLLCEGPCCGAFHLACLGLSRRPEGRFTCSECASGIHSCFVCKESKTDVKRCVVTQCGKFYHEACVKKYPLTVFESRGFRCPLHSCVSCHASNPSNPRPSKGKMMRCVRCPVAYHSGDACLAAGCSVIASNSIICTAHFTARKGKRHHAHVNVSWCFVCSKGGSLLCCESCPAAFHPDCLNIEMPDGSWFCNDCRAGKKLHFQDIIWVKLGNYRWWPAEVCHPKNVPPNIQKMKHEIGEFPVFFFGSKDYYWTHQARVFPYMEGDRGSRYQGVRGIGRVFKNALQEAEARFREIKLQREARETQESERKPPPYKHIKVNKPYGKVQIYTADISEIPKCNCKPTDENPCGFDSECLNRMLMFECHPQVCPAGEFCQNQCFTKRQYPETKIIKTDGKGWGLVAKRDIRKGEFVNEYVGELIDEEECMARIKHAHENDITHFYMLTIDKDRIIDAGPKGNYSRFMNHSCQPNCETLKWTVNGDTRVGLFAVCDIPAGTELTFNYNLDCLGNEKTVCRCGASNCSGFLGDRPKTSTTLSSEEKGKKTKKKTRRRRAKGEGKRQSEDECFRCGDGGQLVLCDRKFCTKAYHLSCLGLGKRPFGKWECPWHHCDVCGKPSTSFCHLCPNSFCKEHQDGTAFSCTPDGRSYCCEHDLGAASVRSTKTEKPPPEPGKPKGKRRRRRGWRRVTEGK
Test: Compound screening: NSD2 degradation by immunoblotting in VCaP cells
Settings: 24 h; for Dmax at 2 µM: VCaP

[1] = read-out: 2.0 μM Degradation % (VCaP)

| SMILES | % Degradation (2 μM, VCaP cells, immunoblotting) | Dmax at 2 µM [1] [%] | Dmax at 2 µM (read-out: % Degradation) [%] |
| --- | --- | --- | --- |
| O=C1CCC(N2C(=O)c3ccc(NC4CCN(C(=O)c5ccc(NC(=O)c6ccc(CN(C(=O)c7ccc8c(c7)OCC(=O)N8)C7CC7)cc6)cc5)CC4)cc3C2=O)C(=O)N1 (stereo not shown) [compound 10k, N-Cyclopropyl-N-(4-((4-(4-((2-(2,6-dioxopiperidin-3-yl)-1,3-dioxoisoindolin-5-yl)amino)piperidine-1-carbonyl)phenyl)carbamoyl)benzyl)-3-oxo-3,4-dihydro-2H-benzo[b][1,4]oxazine-7-carboxamide] | significant potency loss | 48 | 48 |
| O=C1CCC(N2C(=O)c3cccc(NCCCCCCCCNC(=O)c4ccc(NC(=O)c5ccc(CN(C(=O)c6ccc7c(c6)OCC(=O)N7)C6CC6)cc5)cc4)c3C2=O)C(=O)N1 (stereo not shown) [10d, N-Cyclopropyl-N-(4-((4-((8-((2-(2,6-dioxopiperidin-3-yl)-1,3-dioxoisoindolin-4-yl)amino)octyl)carbamoyl)phenyl)carbamoyl)benzyl)-3-oxo-3,4-dihydro-2H-benzo[b][1,4]oxazine-7-carboxamide] |  | 13 | 13 |
| CC1(NC(=O)c2ccc(NC(=O)c3ccc(CN(C(=O)c4ccc5c(c4)OCC(=O)N5)C4CC4)cc3)cc2)CCN(c2ccc3c(c2)C(=O)N(C2CCC(=O)NC2=O)C3=O)CC1 (stereo not shown) [10p, N-Cyclopropyl-N-(4-((4-((1-(2-(2,6-dioxopiperidin-3-yl)-1,3-dioxoisoindolin-5-yl)-4-methylpiperidin-4-yl)carbamoyl)phenyl)carbamoyl)benzyl)-3-oxo-3,4-dihydro-2H-benzo[b][1,4]oxazine-7-carboxamide] |  | 30 | 30 |
| O=C1CCC(N2C(=O)c3cccc(NCCNC(=O)c4ccc(NC(=O)c5ccc(CN(C(=O)c6ccc7c(c6)OCC(=O)N7)C6CC6)cc5)cc4)c3C2=O)C(=O)N1 (stereo not shown) [compound 10a, N-Cyclopropyl-N-(4-((4-((2-((2-(2,6-dioxopiperidin-3-yl)-1,3-dioxoisoindolin-4-yl)amino)ethyl)carbamoyl)phenyl)carbamoyl)benzyl)-3-oxo-3,4-dihydro-2H-benzo[b][1,4]oxazine-7-carboxamide] |  | 17 | 17 |
| O=C1CCC(N2C(=O)c3ccc(N4CCCC(NC(=O)c5ccc(NC(=O)c6ccc(CN(C(=O)c7ccc8c(c7)OCC(=O)N8)C7CC7)cc6)cc5)C4)cc3C2=O)C(=O)N1 (stereo not shown) [10q, N-Cyclopropyl-N-(4-((4-((1-(2-(2,6-dioxopiperidin-3-yl)-1,3-dioxoisoindolin-5-yl)piperidin-3-yl)carbamoyl)phenyl)carbamoyl)benzyl)-3-oxo-3,4-dihydro-2H-benzo[b][1,4]oxazine-7-carboxamide] |  | 3 | 3 |
| O=C1CCC(N2C(=O)c3ccc(N4CCN(C(=O)c5ccc(NC(=O)c6ccc(CN(C(=O)c7ccc8c(c7)OCC(=O)N8)C7CC7)cc6)cc5)CC4)cc3C2=O)C(=O)N1 (stereo not shown) [10m, N-Cyclopropyl-N-(4-((4-(4-(2-(2,6-dioxopiperidin-3-yl)-1,3-dioxoisoindolin-5-yl)piperazine-1-carbonyl)phenyl)carbamoyl)benzyl)-3-oxo-3,4-dihydro-2H-benzo[b][1,4]oxazine-7-carboxamide] |  | 41 | 41 |
| O=C1CCC(N2C(=O)c3ccc(N4CCC(CNC(=O)c5ccc(NC(=O)c6ccc(CN(C(=O)c7ccc8c(c7)OCC(=O)N8)C7CC7)cc6)cc5)CC4)cc3C2=O)C(=O)N1 (stereo not shown) [10n, N-Cyclopropyl-N-(4-((4-(((1-(2-(2,6-dioxopiperidin-3-yl)-1,3-dioxoisoindolin-5-yl)piperidin-4-yl)methyl)carbamoyl)phenyl)carbamoyl)benzyl)-3-oxo-3,4-dihydro-2H-benzo[b][1,4]oxazine-7-carboxamide] |  | 74 | 74 |

The next lines start with the values.

| % Degradation (2 μM, VCaP cells, immunoblotting) | Dmax at 2 µM [1] [%] | Dmax at 2 µM (read-out: % Degradation) [%] | SMILES |
| --- | --- | --- | --- |
|  | 25 | 25 | O=C1CCC(N2C(=O)c3cccc(NCCCCCCNC(=O)c4ccc(NC(=O)c5ccc(CN(C(=O)c6ccc7c(c6)OCC(=O)N7)C6CC6)cc5)cc4)c3C2=O)C(=O)N1 (stereo not shown) [10c, N-Cyclopropyl-N-(4-((4-((6-((2-(2,6-dioxopiperidin-3-yl)-1,3-dioxoisoindolin-4-yl)amino)hexyl)carbamoyl)phenyl)carbamoyl)benzyl)-3-oxo-3,4-dihydro-2H-benzo[b][1,4]oxazine-7-carboxamide] |
|  | 25 | 25 | O=C1CCC(N2C(=O)c3cccc(NCCCCNC(=O)c4ccc(NC(=O)c5ccc(CN(C(=O)c6ccc7c(c6)OCC(=O)N7)C6CC6)cc5)cc4)c3C2=O)C(=O)N1 (stereo not shown) [compound 10b, N-Cyclopropyl-N-(4-((4-((4-((2-(2,6-dioxopiperidin-3-yl)-1,3-dioxoisoindolin-4-yl)amino)butyl)carbamoyl)phenyl)carbamoyl)benzyl)-3-oxo-3,4-dihydro-2H-benzo[b][1,4]oxazine-7-carboxamide] |
|  | 80 | 80 | O=C1CCC(N2C(=O)c3ccc(NCCCCCNC(=O)c4ccc(NC(=O)c5ccc(CN(C(=O)c6ccc7c(c6)OCC(=O)N7)C6CC6)cc5)cc4)cc3C2=O)C(=O)N1 (stereo not shown) [10h, N-Cyclopropyl-N-(4-((4-((5-((2-(2,6-dioxopiperidin-3-yl)-1,3-dioxoisoindolin-5-yl)amino)pentyl)carbamoyl)phenyl)carbamoyl)benzyl)-3-oxo-3,4-dihydro-2H-benzo[b][1,4]oxazine-7-carboxamide] |
|  | 94 | 94 | O=C1CCC(N2C(=O)c3ccc(NCCCNC(=O)c4ccc(NC(=O)c5ccc(CN(C(=O)c6ccc7c(c6)OCC(=O)N7)C6CC6)cc5)cc4)cc3C2=O)C(=O)N1 (stereo not shown) [compound 10f, N-Cyclopropyl-N-(4-((4-((3-((2-(2,6-dioxopiperidin-3-yl)-1,3-dioxoisoindolin-5-yl)amino)propyl)carbamoyl)phenyl)carbamoyl)benzyl)-3-oxo-3,4-dihydro-2H-benzo[b][1,4]oxazine-7-carboxamide] |
|  | 90 | 90 | O=C1CCC(N2C(=O)c3ccc(NCCCCCCCCNC(=O)c4ccc(NC(=O)c5ccc(CN(C(=O)c6ccc7c(c6)OCC(=O)N7)C6CC6)cc5)cc4)cc3C2=O)C(=O)N1 (stereo not shown) [10j, N-Cyclopropyl-N-(4-((4-((8-((2-(2,6-dioxopiperidin-3-yl)-1,3-dioxoisoindolin-5-yl)amino)octyl)carbamoyl)phenyl)carbamoyl)benzyl)-3-oxo-3,4-dihydro-2H-benzo[b][1,4]oxazine-7-carboxamide] |
|  | 83 | 83 | O=C1CCC(N2C(=O)c3ccc(NCCCCCCNC(=O)c4ccc(NC(=O)c5ccc(CN(C(=O)c6ccc7c(c6)OCC(=O)N7)C6CC6)cc5)cc4)cc3C2=O)C(=O)N1 (stereo not shown) [10i, N-Cyclopropyl-N-(4-((4-((6-((2-(2,6-dioxopiperidin-3-yl)-1,3-dioxoisoindolin-5-yl)amino)hexyl)carbamoyl)phenyl)carbamoyl)benzyl)-3-oxo-3,4-dihydro-2H-benzo[b][1,4]oxazine-7-carboxamide] |
|  | 92 | 92 | O=C1CCC(N2C(=O)c3ccc(NCCCCNC(=O)c4ccc(NC(=O)c5ccc(CN(C(=O)c6ccc7c(c6)OCC(=O)N7)C6CC6)cc5)cc4)cc3C2=O)C(=O)N1 (stereo not shown) [10g, N-Cyclopropyl-N-(4-((4-((4-((2-(2,6-dioxopiperidin-3-yl)-1,3-dioxoisoindolin-5-yl)amino)butyl)carbamoyl)phenyl)carbamoyl)benzyl)-3-oxo-3,4-dihydro-2H-benzo[b][1,4]oxazine-7-carboxamide] |
|  | 70 | 70 | O=C1CCC(N2C(=O)c3ccc(NCCNC(=O)c4ccc(NC(=O)c5ccc(CN(C(=O)c6ccc7c(c6)OCC(=O)N7)C6CC6)cc5)cc4)cc3C2=O)C(=O)N1 (stereo not shown) [10e, N-cyclopropyl-N-(4-((4-((2-((2-(2,6-dioxopiperidin-3-yl)-1,3-dioxoisoindolin-5-yl)amino)ethyl)carbamoyl)phenyl)carbamoyl)benzyl)-3-oxo-3,4-dihydro-2H-benzo[b][1,4]oxazine-7-carboxamide] |
